# Data taken from patent US20260265221A1, “PARP INHIBITOR, AND PREPARATION METHOD THEREFOR AND MEDICAL USE THEREOF” (WIGEN BIOMEDICINE TECHNOLOGY (SHANGHAI) CO., LTD., priority 2023, published 2026).
# Key:
# [1] = In vivo pharmacokinetic experiment in CD-1 mice; conditions: mouse, plasma, CD-1 female mice; for Vd: read-out: Vdss
# Protocol: CD-1 female mice aged 7 to 10 weeks were intravenously administered and orally administered at doses of 1 mg/kg and 10 mg/kg, respectively.
# On the day of the experiment, animals in the intravenous group were given the corresponding compound by single injection via the tail vein at an administration volume of 2 mL/kg, and animals in the oral group were given the corresponding compound by single intragastric injection at an administration volume of 10 mL/kg. The animals were weighed before administration, and their administration volume was calculated according to their body weight. […] About […] of whole blood was collected through the orbital venous plexus at each time point and used to prepare plasma for concentration determination by high performance liquid chromatography-tandem mass spectrometry (LC-MS/MS). All animals were suffocated by CO2 after the PK samples were collected at the last time point. The plasma concentrations were processed using a non-compartmental model of Winnolin™ version 8.2 (Pharsight, mountain View, CA) pharmacokinetic software, and the pharmacokinetic parameters were calculated using a linear-log trapezoidal method.
# [2] = In vitro liver microsomal stability, human; format: in vitro ADME; conditions: 1 μM compound, 500 μg/mL liver microsomes, NADPH
# MDA-MB-436 cells = assay: In vitro inhibition of MDA-MB-436 cell proliferation (CTG, 10 days); format: cell-based; conditions: Homo sapiens, MDA-MB-436, 240 h, 10 days incubation, read-out: Inhibitory activity against MDA-MB-436 cells (IC50)
# Protocol: MDA-MB-436 cells were seeded in a 96-well low-adsorption plate at 1200 cells/well. After the cells adhered to the wall overnight, the serially diluted compound was added, and the cells were incubated for another 10 days. The ATP level of the cells was then determined by CTG to evaluate the cell growth. The growth inhibition percentages and IC50 of the compounds were calculated compared to the DMSO group.
# [3] = In vitro liver microsomal stability, mouse; format: in vitro ADME; conditions: 1 μM compound, 500 μg/mL liver microsomes, NADPH
# [4] = system: MDA-MB-436 xenograft tumor; assay: In vivo efficacy in MDA-MB-436 xenograft tumor model; parameters: species or system mouse; conditions: for Tumor growth inhibition rate: after 28 days
# Protocol: MDA-MB-436 cells were subjected to adherent culture in an L-15 medium containing 10% fetal bovine serum and 1% AA at 37° C. with 5% CO2. The cells were digested with trypsin and routinely passaged twice a week. When cells were maintained in the exponential growth phase with viability greater than 95%, the cells were collected, counted, and inoculated. Each 6- to 8-week-old female BALB/c nude mouse was inoculated with 10×10^6 MDA-MB-436 cells+Matrigel in a volume of 0.2 mL in the right cervicodorsal region. […] The compounds were orally administered once a day, and the tumor volume and body weight of the mice were measured twice a week. After 28 days of administration, the mice were sacrificed. Data were processed using software such as Excel.
# [5] = 0 days (start of administration), BALB/c nude mice
# [6] = 28 days, oral once a day, […] day 1-7 and 3 mg/kg day 8-28
# [7] = oral once a day, […] day 1-7 and 3 mg/kg day 8-28
"AUC(0-t) ([1]; iv, Injection (1 mg/kg)) [ng·h/mL]","clearance ([1]; iv, Injection (1 mg/kg)) [mL/min/kg]","half-life ([1]; iv, Injection (1 mg/kg)) [h]","Vd ([1]; iv, Injection (1 mg/kg)) [L/kg]",AUC(0-t) ([1]; Oral administration (10 mg/kg)) [ng·h/mL],Cmax ([1]; Oral administration (10 mg/kg)) [ng/mL],Tmax ([1]; Oral administration (10 mg/kg)) [h],bioavailability ([1]; Oral administration (10 mg/kg)) [%],half-life ([1]; Oral administration (10 mg/kg)) [h],half-life at 1 μM [2] [h],IC50 (MDA-MB-436 cells) [nM],half-life at 1 μM [3] [h],SMILES,"Mean tumor volume [4, 5] [mm^3]","Mean tumor volume [4, 6] [mm^3]","Tumor growth inhibition rate [4, 7] [%]"
3680,4.52,3.13,1.13,60800,14800,0.17,166,2.08,8.23,1.6,4.88,Cc1nc2ccc(CN3CCN(c4ccc(C(=O)N[C@H]5C[C@H]5F)nc4F)CC3)cc2[nH]c1=O [Compound 1],212,87,159
2120,7.7,1.48,0.76,30900,10600,0.5,146,1.71,3.88,2.4,5.15,Cc1nc2ccc(CN3CCN(c4ccc(C(=O)N[C@@H]5C[C@@H]5F)nc4F)CC3)cc2[nH]c1=O [Compound 2],–,–,–
–,–,–,–,–,–,–,–,–,–,2.6,–,CCc1nc2ccc(CN3CCN(c4ccc(C(=O)N[C@@H]5C[C@@H]5F)nc4F)CC3)cc2[nH]c1=O [Compound 6],–,–,–
3590,4.62,3.41,0.73,60800,16000,0.08,192,1.89,3.8,3.7,9.43,Cc1nc2ccc(CN3CCN(c4ccc(C(=O)NC5CC5)nc4F)CC3)cc2[nH]c1=O [Compound 9],212,185,113
2170,7.5,5.07,2.38,20400,4530,0.17,93,3.8,1.67,16,14.4,Cc1nc2ccc(CN3CCN(c4ccc(C(=O)NC5CC5)nc4F)CC3)c(F)c2[nH]c1=O [Compound 10],–,–,–
–,–,–,–,–,–,–,–,–,–,1.7,–,CCc1nc2ccc(CN3CCN(c4ccc(C(=O)N[C@H]5C[C@H]5F)nc4F)CC3)cc2[nH]c1=O [Compound 11],–,–,–

SMILES,"AUC(0-t) ([1]; iv, Injection (1 mg/kg)) [ng·h/mL]","clearance ([1]; iv, Injection (1 mg/kg)) [mL/min/kg]","half-life ([1]; iv, Injection (1 mg/kg)) [h]","Vd ([1]; iv, Injection (1 mg/kg)) [L/kg]",AUC(0-t) ([1]; Oral administration (10 mg/kg)) [ng·h/mL],Cmax ([1]; Oral administration (10 mg/kg)) [ng/mL],Tmax ([1]; Oral administration (10 mg/kg)) [h],bioavailability ([1]; Oral administration (10 mg/kg)) [%],half-life ([1]; Oral administration (10 mg/kg)) [h],half-life at 1 μM [2] [h],IC50 (MDA-MB-436 cells) [nM],half-life at 1 μM [3] [h],"Mean tumor volume [4, 5] [mm^3]","Mean tumor volume [4, 6] [mm^3]","Tumor growth inhibition rate [4, 7] [%]"
"CNC(=O)c1ccc(N2CCN(Cc3ccc4nc(C)c(=O)[nH]c4c3F)CC2)c(F)n1 [AZD9574, reference compound]",2550,6.42,4.54,2.03,25400,5140,0.5,99.5,4.37,1.72,9,2.1,212,126,141
